Data taken from patent US11000033B2, “Ketone or oxime compound, and herbicide” (NISSAN CHEMICAL CORPORATION, priority 2014, dated 2021).

What was measured:
Assay type in all cases: in vivo
beet = experiment: Test Example 4: effect on crop by soil treatment (symbol f); settings: application herbicide amount 320 g/ha
Method in brief: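 Crop seeds, among them rice, wheat, beet and rapeseed, were sown in sterilized diluvial soil and covered with about 1.5 cm of soil. Boxes were kept in a greenhouse at 25° C. to 30° C. for plant growth.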

transplanted rice plant = experiment: Test Example 1: effect on crop, application before weed generation in submerged conditions (symbol a); settings: application herbicide amount 320 g/ha
Method in brief: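 Alluvial soil pots flooded to 4 cm water, sown with Echinochloa oryzacola, Scirpus juncoides and Monochoria vaginalis, then transplanted with 2.5 leaf stage rice seedlings; pre-emergence application. Greenhouse 25° C. to 30° C.; scored 0–5 by herbicidal ratio 3 weeks after application.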

Leptochloa chinensis = experiment: Test Example 3: herbicidal effect by foliage application, Wagner pot (symbol D); settings: application herbicide amount 320 g/ha
Method in brief: (§1)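 Weeds and rice were sown in alluvial soil under 0.1–0.5 cm of standing water and grown for 14 days in a 25–30 °C greenhouse. An emulsion of the compound, diluted in water to a set dose, was sprayed evenly onto the foliage. Effect was scored against fixed criteria 3 weeks after treatment.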

corn = experiment: Test Example 4: effect on crop by soil treatment (symbol c); settings: application herbicide amount 320 g/ha
Method in brief: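 Grown at 25° C. to 30° C. in a greenhouse, the crops came from seed sown spot-wise in sterilized diluvial soil under roughly 1.5 cm of covering soil.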

Amaranthus retroflexus = experiment: Test Example 4: herbicidal effect by soil treatment (symbol N); settings: application herbicide amount 320 g/ha
Method in brief: (§2)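 Seeds were sown in sterilized diluvial soil, covered with about 1.5 cm of soil, and the soil surface was sprayed with a water-diluted emulsion of the compound at a predetermined rate. Plants grew in a greenhouse at 25° C. to 30° C.; effects were scored visually 3 weeks after application.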

Lolium multiflorum Lam. = experiment: Test Example 4: herbicidal effect by soil treatment (symbol K); settings: application herbicide amount 320 g/ha
Method in brief: as §2

Setaria viridis = experiment: Test Example 5: herbicidal effect by foliage application, plastic box (symbol G); settings: 320 g/ha, 3 weeks after application
Method in brief: (§3)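 Effect is rated 3 weeks after a foliar spray of water-diluted emulsion concentrate at a predetermined herbicide amount. Plants had grown 14 days in a 25° C. to 30° C. greenhouse from seed in sterilized diluvial soil.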

soybean = experiment: Test Example 5: effect on crop by foliage application, plastic box (symbol d); settings: 320 g/ha, 3 weeks after application
Method in brief: (§4)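 Seeds were sown in spots in sterilized diluvial soil held in a plastic box 21 cm × 13 cm × 7 cm deep, covered with about 1.5 cm of soil, and grown in a greenhouse at 25° C. to 30° C.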

Scirpus juncoides = experiment: Test Example 1: herbicidal activity, application before weed generation in submerged conditions (symbol B); settings: application herbicide amount 320 g/ha
Method in brief: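 Weeds are sown into submerged alluvial soil alongside transplanted 2.5-leaf rice, and the compound, as an emulsion diluted to a set rate, is applied onto the water before emergence. Rating on the 0–5 herbicidal-ratio scale follows 3 weeks of greenhouse growth at 25–30 °C.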

wheat = experiment: Test Example 5: effect on crop by foliage application, plastic box (symbol e); settings: 320 g/ha, 3 weeks after application
Method in brief: as §4

Cyperus difformis = experiment: Test Example 3: herbicidal effect by foliage application, Wagner pot (symbol E); settings: application herbicide amount 320 g/ha
Method in brief: as §1

[1] = system: Echinochloa crus-galli var. crus-galli; experiment: Test Example 4: herbicidal effect by soil treatment (symbol H); settings: application herbicide amount 320 g/ha
Method in brief: as §2

Veronica persica [2] = experiment: Test Example 4: herbicidal effect by soil treatment (symbol R); settings: application herbicide amount 320 g/ha
Method in brief: as §2

Veronica persica [3] = experiment: Test Example 5: herbicidal effect by foliage application, plastic box (symbol R); settings: 320 g/ha, 3 weeks after application
Method in brief: as §3

Galium spurium = experiment: Test Example 5: herbicidal effect by foliage application, plastic box (symbol Q); settings: 320 g/ha, 3 weeks after application
Method in brief: as §3

SMILES	f (beet) effect on crop grade (beet)	Effect grade on crop, a: transplanted rice plant (transplanted rice plant)	herbicidal effect on D (Leptochloa chinensis), grade 0-5 (Leptochloa chinensis)	c (corn) effect on crop grade (corn)	N (Amaranthus retroflexus) herbicidal effect grade (Amaranthus retroflexus)	K (Lolium multiflorum Lam.) herbicidal effect grade (Lolium multiflorum Lam.)	G: Setaria viridis, herbicidal effect grade (Setaria viridis)	d: soybean, effect on crop grade (soybean)	Herbicidal effect grade, B: Scirpus juncoides (Scirpus juncoides)	e: wheat, effect on crop grade (wheat)	herbicidal effect on E, grade 0-5 (Cyperus difformis)	H (Echinochloa crus-galli var. crus-galli) herbicidal effect grade [1]	R (Veronica persica) herbicidal effect grade (Veronica persica [2])	R: Veronica persica, herbicidal effect grade (Veronica persica [3])	Q: Galium spurium, herbicidal effect grade (Galium spurium)
CC(CC1CC(O)=C(c2c(C)cc(C)cc2C)C1=O)=NOCC[Si](C)(C)C (centres unmarked) [1-055]	0 (Herbicidal ratio of 5% or lower (almost no effect))	5 (Herbicidal ratio of 90% or more (almost completely withered))	5 (Herbicidal ratio of 90% or more (almost completely withered))	0 (Herbicidal ratio of 5% or lower (almost no effect))	0 (Herbicidal ratio of 5% or lower (almost no effect))	5 (Herbicidal ratio of 90% or more (almost completely withered))	3 (Herbicidal ratio of 40% or higher and lower than 70%)	2 (Herbicidal ratio of 20% or higher and lower than 40%)	3 (Herbicidal ratio of 40% or higher and lower than 70%)	0 (Herbicidal ratio of 5% or lower (almost no effect))	4 (Herbicidal ratio of 70% or higher and lower than 90%)	4 (Herbicidal ratio of 70% or higher and lower than 90%)	0 (Herbicidal ratio of 5% or lower (almost no effect))	–	–
CC(CC1CC(O)=C(c2c(C)cc(C)cc2C)C1=O)=NOCC=CCl (centres unmarked) [1-056]	0 (Herbicidal ratio of 5% or lower (almost no effect))	5 (Herbicidal ratio of 90% or more (almost completely withered))	5 (Herbicidal ratio of 90% or more (almost completely withered))	3 (Herbicidal ratio of 40% or higher and lower than 70%)	3 (Herbicidal ratio of 40% or higher and lower than 70%)	5 (Herbicidal ratio of 90% or more (almost completely withered))	5 (Herbicidal ratio of 90% or more (almost completely withered))	4 (Herbicidal ratio of 70% or higher and lower than 90%)	5 (Herbicidal ratio of 90% or more (almost completely withered))	5 (Herbicidal ratio of 90% or more (almost completely withered))	5 (Herbicidal ratio of 90% or more (almost completely withered))	5 (Herbicidal ratio of 90% or more (almost completely withered))	0 (Herbicidal ratio of 5% or lower (almost no effect))	–	–
CON=C(CC1CC(OC(=O)COc2ccccc2)=C(c2c(C)cc(C)cc2C)C1=O)C1CC1 (centres unmarked) [1-063]	–	5 (Herbicidal ratio of 90% or more (almost completely withered))	5 (Herbicidal ratio of 90% or more (almost completely withered))	4 (Herbicidal ratio of 70% or higher and lower than 90%)	0 (Herbicidal ratio of 5% or lower (almost no effect))	5 (Herbicidal ratio of 90% or more (almost completely withered))	5 (Herbicidal ratio of 90% or more (almost completely withered))	3 (Herbicidal ratio of 40% or higher and lower than 70%)	3 (Herbicidal ratio of 40% or higher and lower than 70%)	4 (Herbicidal ratio of 70% or higher and lower than 90%)	5 (Herbicidal ratio of 90% or more (almost completely withered))	5 (Herbicidal ratio of 90% or more (almost completely withered))	0 (Herbicidal ratio of 5% or lower (almost no effect))	4 (Herbicidal ratio of 70% or higher and lower than 90%)	–
CC(CC1CC(O)=C(c2c(C)cc(C)cc2C)C1=O)=NO (centres unmarked) [1-058]	0 (Herbicidal ratio of 5% or lower (almost no effect))	5 (Herbicidal ratio of 90% or more (almost completely withered))	5 (Herbicidal ratio of 90% or more (almost completely withered))	4 (Herbicidal ratio of 70% or higher and lower than 90%)	2 (Herbicidal ratio of 20% or higher and lower than 40%)	5 (Herbicidal ratio of 90% or more (almost completely withered))	5 (Herbicidal ratio of 90% or more (almost completely withered))	3 (Herbicidal ratio of 40% or higher and lower than 70%)	0 (Herbicidal ratio of 5% or lower (almost no effect))	5 (Herbicidal ratio of 90% or more (almost completely withered))	5 (Herbicidal ratio of 90% or more (almost completely withered))	5 (Herbicidal ratio of 90% or more (almost completely withered))	0 (Herbicidal ratio of 5% or lower (almost no effect))	–	–
CCON=C(C)CC1CC(O)=C(c2c(C)cc(C)cc2C)C1=O (centres unmarked) [1-003]	2 (Herbicidal ratio of 20% or higher and lower than 40%)	5 (Herbicidal ratio of 90% or more (almost completely withered))	5 (Herbicidal ratio of 90% or more (almost completely withered))	5 (Herbicidal ratio of 90% or more (almost completely withered))	3 (Herbicidal ratio of 40% or higher and lower than 70%)	5 (Herbicidal ratio of 90% or more (almost completely withered))	5 (Herbicidal ratio of 90% or more (almost completely withered))	3 (Herbicidal ratio of 40% or higher and lower than 70%)	4 (Herbicidal ratio of 70% or higher and lower than 90%)	5 (Herbicidal ratio of 90% or more (almost completely withered))	5 (Herbicidal ratio of 90% or more (almost completely withered))	5 (Herbicidal ratio of 90% or more (almost completely withered))	–	3 (Herbicidal ratio of 40% or higher and lower than 70%)	3 (Herbicidal ratio of 40% or higher and lower than 70%)
CON=C(C)C(c1ccc(F)cc1)C1CC(O)=C(c2c(C)cc(C)cc2C)C1=O (centres unmarked) [1-049]	0 (Herbicidal ratio of 5% or lower (almost no effect))	0 (Herbicidal ratio of 5% or lower (almost no effect))	0 (Herbicidal ratio of 5% or lower (almost no effect))	0 (Herbicidal ratio of 5% or lower (almost no effect))	0 (Herbicidal ratio of 5% or lower (almost no effect))	0 (Herbicidal ratio of 5% or lower (almost no effect))	0 (Herbicidal ratio of 5% or lower (almost no effect))	0 (Herbicidal ratio of 5% or lower (almost no effect))	0 (Herbicidal ratio of 5% or lower (almost no effect))	0 (Herbicidal ratio of 5% or lower (almost no effect))	0 (Herbicidal ratio of 5% or lower (almost no effect))	0 (Herbicidal ratio of 5% or lower (almost no effect))	–	0 (Herbicidal ratio of 5% or lower (almost no effect))	0 (Herbicidal ratio of 5% or lower (almost no effect))
